According to ChEMBL document CHEMBL1201862, “PubChem BioAssay data set” (2004):
Values joined by “and” are separate entries in the source; they are usually repeats but may differ in a detail not shown here. Identical values can stand only once.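 All cell lines were grown in 96-well plates and treated with compound for 48 hours. At the GI50, growth is halved.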 Active and inactive are the calls of the source. No stated cut-off is given here; in the data, active = GI50 up to about 1.1 µM and inactive = higher.

Key:
Assay in all cases: growth of human tumour cells (NCI), 48 h
DMS-273 = system: DMS-273
SF-539 = system: SF-539
CAKI-1 = system: CAKI-1
ACHN = system: ACHN
IGROV-1 = system: IGROV-1
DLD-1 = system: DLD-1
UO-31 = system: UO-31
HCT-116 = system: HCT-116
NCI-H460 = system: NCI-H460
SW-620 = system: SW-620
CCRF-CEM = system: CCRF-CEM
HOP-92 = system: HOP-92
RXF 393 = system: RXF 393
COLO 205 = system: COLO 205
RXF 631 = system: RXF 631
A549 = system: A549
NCI-H522 = system: NCI-H522
SF-295 = system: SF-295
SN12C = system: SN12C
OVCAR-4 = system: OVCAR-4
TK-10 = system: TK-10
SK-MEL-5 = system: SK-MEL-5
K562 = system: K562
MOLT-4 = system: MOLT-4
EKVX = system: EKVX
Malme-3M = system: Malme-3M
UACC-257 = system: UACC-257
LXFL 529 = system: LXFL 529
A498 = system: A498
SR = system: SR
M14 = system: M14
KM-20L2 = system: KM-20L2
HOP-18 = system: HOP-18
OVCAR-8 = system: OVCAR-8
786-0 = system: 786-0
RPMI-8226 = system: RPMI-8226
OVCAR-3 = system: OVCAR-3
HCC 2998 = system: HCC 2998
SNB-78 = system: SNB-78
NCI-H23 = system: NCI-H23
HT-29 = system: HT-29
SNB-75 = system: SNB-75
LOX IMVI = system: LOX IMVI
NCI/ADR-RES = system: NCI/ADR-RES
NCI-H226 = system: NCI-H226
SF-268 = system: SF-268
UACC-62 = system: UACC-62
SK-OV-3 = system: SK-OV-3
SNB-19 = system: SNB-19
HL-60 = system: HL-60
SK-MEL-28 = system: SK-MEL-28
MCF7 = system: MCF7
HOP-62 = system: HOP-62
SK-MEL-2 = system: SK-MEL-2

Measured: GI50

CC(C)(C)OC(=O)N1N=NC2C3CC(=O)C(O3)C21 (stereo not drawn)
inactive: DMS-273 > 100 µM | SF-539 > 100 µM | CAKI-1 > 100 µM | ACHN > 100 µM | IGROV-1 > 100 µM | DLD-1 > 100 µM | UO-31 > 100 µM | HCT-116 > 10 µM | NCI-H460 > 100 µM | SW-620 > 100 µM | CCRF-CEM > 100 µM | HOP-92 > 100 µM | RXF 393 > 100 µM | COLO 205 > 10 µM | RXF 631 > 100 µM | A549 > 100 µM | NCI-H522 > 100 µM | SF-295 > 100 µM | SN12C > 100 µM | OVCAR-4 > 10 µM | TK-10 > 100 µM | SK-MEL-5 > 100 µM | K562 > 100 µM | MOLT-4 > 100 µM | EKVX > 100 µM | Malme-3M > 100 µM | UACC-257 > 10 µM | LXFL 529 > 100 µM | A498 > 100 µM | SR > 100 µM | M14 > 100 µM | KM-20L2 > 100 µM | HOP-18 > 100 µM | OVCAR-8 86.1 µM | 786-0 > 100 µM | RPMI-8226 > 100 µM | OVCAR-3 > 100 µM

NC(=O)C#CC(N)=O
inactive: SF-539 24.4 µM and 19.5 µM | HCC 2998 > 100 µM and 58.3 µM | SNB-78 54 µM and 47.3 µM | ACHN > 100 µM | IGROV-1 > 100 µM and 67.5 µM | NCI-H23 58.5 µM and > 91.2 µM | UO-31 24 µM and 28.5 µM | HT-29 20.8 µM and 41.5 µM | CCRF-CEM 3.08 µM and 1.94 µM | SNB-75 30.1 µM and 42.2 µM | LOX IMVI 14.5 µM and 18.3 µM | NCI/ADR-RES 7.14 µM | NCI-H226 > 100 µM and 63 µM | SF-268 60.3 µM and 38.9 µM | RXF 631 > 100 µM | A549 73.3 µM | NCI-H522 21.2 µM and 14.2 µM | SF-295 13.8 µM and 25.2 µM | TK-10 20.8 µM | UACC-62 19.4 µM and 14.6 µM | K562 2.91 µM and 4.66 µM | Malme-3M 13.1 µM and 7.53 µM | LXFL 529 64.9 µM | SK-OV-3 > 100 µM and 108 µM | A498 > 100 µM and 53.1 µM | SNB-19 > 100 µM and 121 µM | SR 14.6 µM | HL-60 2.52 µM and 1.71 µM | M14 19.2 µM | SK-MEL-28 7.08 µM and 14 µM | MCF7 19.3 µM | HOP-18 18.2 µM and 28.2 µM | HOP-62 > 100 µM and 69.2 µM | 786-0 29.2 µM | SK-MEL-2 21.9 µM and 13.7 µM | RPMI-8226 2.14 µM
